How the values were obtained:
HBV = test: HepAD38 antiviral assay: reduction of viral product accumulation (virion DNA by qPCR, HBsAg or HBeAg by ELISA); assay type: cell-based, hepatitis B virus; conditions: Hepatitis B virus, 120 h; HepAD38 cells, five days after compound addition; 50% reduction of viral product vs no drug controls; read-out: HepAD38 EC50
Summary of the method: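 Readouts were qPCR of lysed virion DNA plus ELISA for HBsAg or HBeAg, samples diluted into linear range. HepAD38 cells, washed free of tetracycline, received compound diluted 1:200 from DMSO for 5 days; 8-day variant refreshed media and compound on days 2 and 5.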

[1] = Compound toxicity by ATPLite (total ATP levels); assay type: cell-based; conditions: human, three days after compound addition, 50% reduction of total ATP
Protocol: Methods: HepAD38 cells are maintained as previously reported (Ladner et al, Antimicrob. Agents Chemother. 1997, […], 1715). Briefly, cells are passaged upon attaining confluency in DMEM/F12 media in the presence of 10% FBS, Penn/Strep, 250 μg/mL G418, and 1 ug/ml tetracycline. Novel compounds are screened by first washing cells three times with PBS to remove tetracycline, and plating in 96 well plates at 35,000 cells/well. Compounds dissolved in DMSO are then diluted 1:200 into wells containing cells. Five days after compound addition, material is harvested for analysis. For an extended 8 days analysis, cells are plated and treated as described above, but media and compound are refreshed on d2 and d5 post initial treatment.
Compound toxicity is evaluated by seeding cells at 15,000 cells/well and treating with compound as described above.

SMILES: O=C(Nc1ccc(F)c(F)c1)c1ccc(Cl)c(S(=O)(=O)[C@H]2CC3CCC(C2)[C@]3(O)[C@H](O)c2ccccn2)c1 (single isomer, unassigned) [Example 284b]
- EC50 (HBV): < 104 nM
- CC50 at 3 days ([1]; class symbols): > 25000 nM

SMILES: CC(O)CNC(=O)C[C@]1(O)C2CCC1C[C@@H](S(=O)(=O)c1cc(C(=O)Nc3cc(F)c(F)c(F)c3)ccc1Cl)C2 (stereo partly shown) [Example 54]
- EC50 (HBV): < 104 nM
- CC50 at 3 days ([1]; class symbols): > 25000 nM

SMILES: O=C(Nc1ccc(F)c(F)c1)c1ccc(Cl)c(S(=O)(=O)[C@H]2CC3CCC(C2)[C@]3(O)CNC(=O)c2nccs2)c1 [Example 168]
- EC50 (HBV): < 104 nM
- CC50 at 3 days ([1]; class symbols): 10000 to 25000 nM

SMILES: CC(=O)[C@@H](O)[C@@]1(O)C2CC[C@H]1C[C@H](S(=O)(=O)c1cc(C(=O)Nc3ccc(F)c(F)c3)ccc1Cl)C2 [Example 331]
- EC50 (HBV): < 104 nM
- CC50 at 3 days ([1]; class symbols): > 25000 nM

SMILES: O=C(C[C@]1(O)C2CCC1C[C@@H](S(=O)(=O)c1cc(C(=O)Nc3cc(F)c(F)c(F)c3)ccc1Cl)C2)N[C@@H]1CCOC1 [Example 73]
- EC50 (HBV): < 104 nM
- CC50 at 3 days ([1]; numeric bounds): > 6250 nM

SMILES: CC(C)(O)CNC(=O)C[C@]1(O)C2CCC1C[C@@H](S(=O)(=O)c1cc(C(=O)Nc3ccc(F)c(F)c3)ccc1Cl)C2 [Example 187]
- EC50 (HBV): < 104 nM
- CC50 at 3 days ([1]; numeric bounds): > 12500 nM

SMILES: CC=CCNC(=O)C[C@]1(O)C2CCC1C[C@@H](S(=O)(=O)c1cc(C(=O)Nc3cc(F)c(F)c(F)c3)ccc1Cl)C2 [Example 53]
- EC50 (HBV): < 104 nM
- CC50 at 3 days ([1]; numeric bounds): > 6250 nM

SMILES: O=C(Nc1ccc(F)c(F)c1)c1ccc(Cl)c(S(=O)(=O)[C@H]2CC3CCC(C2)[C@]3(O)CNC(=O)c2ncco2)c1 [Example 167]
- EC50 (HBV): < 104 nM
- CC50 at 3 days ([1]; numeric bounds): > 12500 nM

SMILES: C[C@@H](O)[C@@H](O)[C@]1(O)C2CCC1C[C@@H](S(=O)(=O)c1cc(C(=O)Nc3cc(F)c(F)c(F)c3)ccc1Cl)C2 (racemic) [Example 4]
- EC50 (HBV): < 104 nM
- CC50 at 3 days ([1]; numeric bounds): > 12500 nM

SMILES: CC(=O)N(C[C@@H](C)O)C[C@]1(O)C2CCC1C[C@@H](S(=O)(=O)c1cc(C(=O)Nc3cc(F)c(F)c(F)c3)ccc1Cl)C2 [Example 126]
- EC50 (HBV): < 104 nM
- CC50 at 3 days ([1]; numeric bounds): > 6250 nM

SMILES: CC(C)=CCNC(=O)C[C@]1(O)C2CCC1C[C@@H](S(=O)(=O)c1cc(C(=O)Nc3cc(F)c(F)c(F)c3)ccc1Cl)C2 [Example 52]
- EC50 (HBV): < 104 nM
- CC50 at 3 days ([1]; class symbols): > 25000 nM

SMILES: C[C@@H]1CN([C@H]2C3CCC2C[C@H](S(=O)(=O)c2cc(C(=O)Nc4ccc(F)c(F)c4)ccc2Cl)C3)C(=O)O1 [Example 344]
- EC50 (HBV): < 104 nM
- CC50 at 3 days ([1]; class symbols): > 25000 nM

SMILES: C[C@H](O)C(=O)[C@]1(O)C2CCC1C[C@@H](S(=O)(=O)c1cc(C(=O)Nc3ccc(F)c(F)c3)ccc1Cl)C2 [Example 345]
- EC50 (HBV): < 104 nM
- CC50 at 3 days ([1]; class symbols): > 25000 nM

SMILES: O=C(Nc1ccc(F)c(C(F)F)c1)c1ccc(Cl)c(S(=O)(=O)[C@H]2CC3CCC(C2)[C@]3(O)CO)c1 [Example 151]
- EC50 (HBV): < 104 nM
- CC50 at 3 days ([1]; class symbols): > 25000 nM

SMILES: C[C@H](O)CNC(=O)C[C@]1(O)C2CCC1C[C@@H](S(=O)(=O)c1cc(C(=O)Nc3ccc(F)c(F)c3)ccc1Cl)C2 [Example 185]
- EC50 (HBV): < 104 nM
- CC50 at 3 days ([1]; numeric bounds): > 12500 nM

SMILES: O=C(Nc1cc(F)c(F)c(F)c1)c1ccc(Cl)c(S(=O)(=O)[C@H]2CC3CCC(C2)[C@]3(O)COCCO)c1 [Example 62]
- EC50 (HBV): < 104 nM
- CC50 at 3 days ([1]; numeric bounds): > 12500 nM

SMILES: CC(=O)N(C[C@H](C)O)C[C@]1(O)C2CCC1C[C@@H](S(=O)(=O)c1cc(C(=O)Nc3cc(F)c(F)c(F)c3)ccc1Cl)C2 [Example 125]
- EC50 (HBV): < 104 nM
- CC50 at 3 days ([1]; numeric bounds): > 6250 nM

SMILES: O=C(NC[C@@]1(O)C2CC[C@H]1C[C@H](S(=O)(=O)c1cc(C(=O)Nc3cc(F)c(F)c(F)c3)ccc1Cl)C2)C1=CCCC1 [Example 41]
- EC50 (HBV): < 104 nM
- CC50 at 3 days ([1]; numeric bounds): > 6250 nM

SMILES: O=C(Nc1ccc(F)c(F)c1)c1ccc(Cl)c(S(=O)(=O)[C@H]2CC3CCC(C2)[C@]3(O)[C@H](O)c2cccnc2)c1 (single isomer, unassigned) [Example 285b]
- EC50 (HBV): < 104 nM
- CC50 at 3 days ([1]; class symbols): > 25000 nM

SMILES: C[C@@H](O)CNC(=O)C[C@]1(O)C2CCC1C[C@@H](S(=O)(=O)c1cc(C(=O)Nc3ccc(F)c(F)c3)ccc1Cl)C2 [Example 186]
- EC50 (HBV): < 104 nM
- CC50 at 3 days ([1]; numeric bounds): > 12500 nM

SMILES: C[C@@H](O)[C@H](O)COC[C@]1(O)C2CCC1C[C@@H](S(=O)(=O)c1cc(C(=O)Nc3ccc(F)c(F)c3)ccc1Cl)C2 [Example 178]
- EC50 (HBV): < 104 nM
- CC50 at 3 days ([1]; class symbols): > 25000 nM

SMILES: C[C@H](O)[C@@H](O)[C@]1(O)C2CCC1C[C@@H](S(=O)(=O)c1cc(C(=O)Nc3cc(F)c(F)c(F)c3)ccc1Cl)C2 (racemic) [Example 5]
- EC50 (HBV): < 104 nM
- CC50 at 3 days ([1]; numeric bounds): > 3000 nM

SMILES: [2H]C1([2H])C2C[C@]([2H])(S(=O)(=O)c3cc(C(=O)Nc4ccc(F)c(F)c4)ccc3Cl)CC(C1([2H])[2H])[C@]2(O)CO [Example 272]
- EC50 (HBV): < 104 nM
- CC50 at 3 days ([1]; class symbols): > 25000 nM

SMILES: CO[C@@H](C)CNC(=O)C[C@]1(O)C2CCC1C[C@@H](S(=O)(=O)c1cc(C(=O)Nc3ccc(F)c(F)c3)ccc1Cl)C2 [Example 188]
- EC50 (HBV): < 104 nM
- CC50 at 3 days ([1]; numeric bounds): > 12500 nM

SMILES: CC(C)(O)C[C@@]1(O)C2CC[C@H]1C[C@H](S(=O)(=O)c1cc(C(=O)Nc3ccc(F)c(F)c3)ccc1Cl)C2 [Example 193]
- EC50 (HBV): < 104 nM
- CC50 at 3 days ([1]; class symbols): > 25000 nM

SMILES: O=C(Nc1cc(F)c(F)c(F)c1)c1ccc(Cl)c(S(=O)(=O)[C@H]2CC3CCC(C2)[C@]3(O)COC(CCO)CCO)c1 [Example 61]
- EC50 (HBV): < 104 nM
- CC50 at 3 days ([1]; numeric bounds): > 6250 nM

SMILES: O=C(C[C@]1(O)C2CCC1C[C@@H](S(=O)(=O)c1cc(C(=O)Nc3ccc(F)c(F)c3)ccc1Cl)C2)NC1CC(O)C1 (stereo partly shown) [Example 192]
- EC50 (HBV): < 104 nM
- CC50 at 3 days ([1]; numeric bounds): > 12500 nM

SMILES: O=C(Nc1cc(F)c(F)c(F)c1)c1ccc(Cl)c(S(=O)(=O)[C@H]2CC3CCC(C2)[C@]3(O)CNC(=O)C2CCCCO2)c1 (stereo partly shown) [Example 91]
- EC50 (HBV): < 104 nM
- CC50 at 3 days ([1]; class symbols): 10000 to 25000 nM

SMILES: C=CCc1cc(Cl)c(S(=O)(=O)[C@H]2CC3CCC(C2)[C@@]3(C)O)cc1C(=O)Nc1ccc(F)c(F)c1 [Example 135]
- EC50 (HBV): < 104 nM
- CC50 at 3 days ([1]; class symbols): < 10000 nM

SMILES: C[C@@H](O)[C@H](O)[C@]1(O)C2CCC1C[C@@H](S(=O)(=O)c1cc(C(=O)Nc3ccc(F)c(F)c3)ccc1Cl)C2 (single isomer, unassigned) [Example 183]
- EC50 (HBV): < 104 nM
- CC50 at 3 days ([1]; class symbols): > 25000 nM

SMILES: COC(C)(C)CNC(=O)C[C@]1(O)C2CCC1C[C@@H](S(=O)(=O)c1cc(C(=O)Nc3ccc(F)c(F)c3)ccc1Cl)C2 [Example 191]
- EC50 (HBV): < 104 nM
- CC50 at 3 days ([1]; class symbols): > 25000 nM

SMILES: CC(=O)OC[C@H](O)[C@@H](O)[C@@]1(O)C2CC[C@H]1C[C@H](S(=O)(=O)c1cc(C(=O)Nc3cc(F)c(F)c(F)c3)ccc1Cl)C2 (relative stereo) [Example 68]
- EC50 (HBV): < 104 nM
- CC50 at 3 days ([1]; class symbols): > 25000 nM

SMILES: CC(=O)C[C@@]1(O)C2CC[C@H]1C[C@H](S(=O)(=O)c1cc(C(=O)Nc3ccc(F)c(F)c3)ccc1Cl)C2 [Example 215]
- EC50 (HBV): < 104 nM
- CC50 at 3 days ([1]; class symbols): > 25000 nM

SMILES: [2H]c1cc(F)c(F)c([2H])c1NC(=O)c1ccc(Cl)c(S(=O)(=O)[C@@H]2C([2H])([2H])C3CC[C@@H](C2([2H])[2H])[C@@]3(O)[C@@H](O)[C@H](C)O)c1 [Example 338]
- EC50 (HBV): < 104 nM
- CC50 at 3 days ([1]; class symbols): > 25000 nM

SMILES: O=C(C[C@]1(O)C2CCC1C[C@@H](S(=O)(=O)c1cc(C(=O)Nc3cc(F)c(F)c(F)c3)ccc1Cl)C2)N[C@H]1C[C@H](O)C1 [Example 111]
- EC50 (HBV): < 104 nM
- CC50 at 3 days ([1]; numeric bounds): > 3000 nM

Source: US11596611B2, “Hepatitis B antiviral agents” (ENANTA PHARMACEUTICALS, INC., priority 2017, dated 2023)
